Measured values as given in ChEMBL document CHEMBL4229532, “A series of camptothecin prodrugs exhibit HDAC inhibition activity” (Bioorg Med Chem, 2018).
Activity calls are given as the source filed them. The rule behind the calls is not given here.

Key:
[1] = test system: A549; test: Antiproliferative activity against human A549 cells after 72 hrs by SRB assay; format: functional, cell-based; settings: A549, 72 h
[2] = target: T1, Protein deacetylase HDAC6 (Homo sapiens) (UniProt Q9UBN7); test: Inhibition of HDAC6 in human A549 cells assessed as increase in acetylated tubulin levels at 1 to 10 uM after 24 hrs by Western blot analysis; format: cell-based
T1 sequence (whole entry): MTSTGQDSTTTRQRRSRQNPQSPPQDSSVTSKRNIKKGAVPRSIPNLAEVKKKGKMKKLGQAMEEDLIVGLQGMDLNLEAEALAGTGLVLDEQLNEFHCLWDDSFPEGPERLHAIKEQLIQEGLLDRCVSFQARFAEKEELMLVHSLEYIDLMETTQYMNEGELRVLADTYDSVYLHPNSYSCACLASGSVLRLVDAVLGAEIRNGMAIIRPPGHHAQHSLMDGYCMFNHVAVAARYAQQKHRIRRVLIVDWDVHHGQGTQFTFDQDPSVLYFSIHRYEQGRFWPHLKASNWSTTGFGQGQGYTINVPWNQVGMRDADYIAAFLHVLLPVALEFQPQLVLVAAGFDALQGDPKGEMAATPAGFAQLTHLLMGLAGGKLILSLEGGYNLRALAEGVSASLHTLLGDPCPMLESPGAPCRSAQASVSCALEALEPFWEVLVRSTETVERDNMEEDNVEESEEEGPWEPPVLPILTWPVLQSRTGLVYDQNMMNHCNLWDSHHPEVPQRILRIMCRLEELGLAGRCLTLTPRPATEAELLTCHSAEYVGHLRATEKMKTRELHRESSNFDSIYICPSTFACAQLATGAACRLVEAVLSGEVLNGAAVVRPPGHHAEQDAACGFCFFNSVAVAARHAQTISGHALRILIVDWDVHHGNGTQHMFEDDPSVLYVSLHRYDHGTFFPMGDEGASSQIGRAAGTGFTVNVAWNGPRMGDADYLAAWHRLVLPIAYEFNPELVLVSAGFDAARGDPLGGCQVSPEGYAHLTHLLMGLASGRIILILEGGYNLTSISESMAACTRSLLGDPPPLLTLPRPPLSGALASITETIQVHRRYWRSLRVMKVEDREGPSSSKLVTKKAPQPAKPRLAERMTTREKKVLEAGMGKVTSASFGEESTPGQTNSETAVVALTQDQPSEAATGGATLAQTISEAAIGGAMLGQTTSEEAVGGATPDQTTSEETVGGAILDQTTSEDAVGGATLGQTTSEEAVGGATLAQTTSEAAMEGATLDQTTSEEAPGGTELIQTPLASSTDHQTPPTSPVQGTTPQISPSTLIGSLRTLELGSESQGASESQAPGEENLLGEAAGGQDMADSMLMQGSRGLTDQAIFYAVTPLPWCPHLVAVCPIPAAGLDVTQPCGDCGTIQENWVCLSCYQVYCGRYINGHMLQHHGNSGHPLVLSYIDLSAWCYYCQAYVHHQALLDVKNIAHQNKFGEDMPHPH

[3] = test system: HCT-116; test: Antiproliferative activity against human HCT116 cells after 72 hrs by SRB assay; format: functional, cell-based; settings: HCT-116, 72 h
[4] = target: Histone deacetylase 3 (Homo sapiens, UniProt O15379); test: Inhibition of recombinant human HDAC3 expressed in baculovirus infected High5 insect cells using Ac-Lys-Tyr-Lys(epsilon-acetyl)-AMC as substrate after 24 hrs by fluorescence assay
Histone deacetylase 3, sequence (O15379 whole entry): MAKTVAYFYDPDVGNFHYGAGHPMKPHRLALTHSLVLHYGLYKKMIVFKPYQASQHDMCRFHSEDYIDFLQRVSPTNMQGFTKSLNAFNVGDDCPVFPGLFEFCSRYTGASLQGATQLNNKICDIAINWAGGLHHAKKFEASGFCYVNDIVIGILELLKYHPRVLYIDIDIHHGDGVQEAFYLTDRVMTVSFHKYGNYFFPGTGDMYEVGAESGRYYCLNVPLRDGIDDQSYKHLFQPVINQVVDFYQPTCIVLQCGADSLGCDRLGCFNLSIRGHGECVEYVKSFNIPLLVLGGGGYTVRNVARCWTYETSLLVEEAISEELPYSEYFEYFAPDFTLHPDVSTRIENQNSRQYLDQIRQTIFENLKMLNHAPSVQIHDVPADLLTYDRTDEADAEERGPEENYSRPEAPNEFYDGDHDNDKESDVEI

[5] = target: Histone deacetylase 1 (Homo sapiens, UniProt Q13547); test: Inhibition of recombinant human HDAC1 expressed in baculovirus infected High5 insect cells using Ac-Lys-Tyr-Lys(epsilon-acetyl)-AMC as substrate after 24 hrs by fluorescence assay
Histone deacetylase 1, sequence (Q13547 whole entry): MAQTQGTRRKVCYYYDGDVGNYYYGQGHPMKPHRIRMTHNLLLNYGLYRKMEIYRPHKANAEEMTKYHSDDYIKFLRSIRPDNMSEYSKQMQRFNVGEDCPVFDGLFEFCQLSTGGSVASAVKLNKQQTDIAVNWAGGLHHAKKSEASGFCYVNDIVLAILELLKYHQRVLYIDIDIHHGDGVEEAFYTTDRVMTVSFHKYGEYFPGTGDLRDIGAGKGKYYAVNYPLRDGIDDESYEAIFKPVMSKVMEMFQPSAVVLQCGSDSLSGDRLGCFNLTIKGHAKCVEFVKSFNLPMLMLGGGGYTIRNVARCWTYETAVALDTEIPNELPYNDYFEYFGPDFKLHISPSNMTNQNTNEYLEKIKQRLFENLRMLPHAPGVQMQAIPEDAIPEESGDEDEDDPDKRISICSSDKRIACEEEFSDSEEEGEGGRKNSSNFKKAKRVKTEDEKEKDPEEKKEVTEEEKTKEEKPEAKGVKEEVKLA

[6] = target: T1, Protein deacetylase HDAC6 (Homo sapiens); test: Inhibition of HDAC6 in human HCT116 cells assessed as increase in acetylated tubulin levels at 1 to 10 uM after 24 hrs by Western blot analysis; format: cell-based
[7] = target: T2, Protein deacetylase HDAC6 (Homo sapiens, UniProt Q9UBN7); test: Inhibition of recombinant human HDAC6 expressed in baculovirus infected High5 insect cells using Boc-Lys (epsilon-acetyl)-AMC as substrate after 3 hrs by fluorescence assay
T2 sequence (Q9UBN7 whole entry): T1 sequence (whole entry)

[8] = Stability of the compound in PBS at pH 6 at 50 uM by HPLC analysis; format: physicochemical; settings: buffer, pH 6, 50 µM
[9] = Half life in mouse plasma at 50 uM by HPLC analysis; format: ADME, cell-free
[10] = Half life in human plasma at 50 uM by HPLC analysis; format: ADME, cell-free
[11] = Half life in PBS at pH 7.4 at 50 uM by HPLC analysis; format: physicochemical
[12] = Stability of the compound in PBS at pH 7.4 at 50 uM by HPLC analysis; format: physicochemical; settings: buffer, pH 7.4, 50 µM
[13] = Stability of the compound in mouse plasma at 50 uM by HPLC analysis; format: ADME, cell-free
[14] = Stability of the compound in human plasma at 50 uM by HPLC analysis; format: ADME, cell-free
[15] = target: T1, Protein deacetylase HDAC6 (Homo sapiens); test: Inhibition of HDAC6 in human A549 cells assessed as increase in acetylated tubulin levels at 0.3 to 30 uM after 24 hrs by Western blot analysis; format: cell-based
[16] = target: T1, Protein deacetylase HDAC6 (Homo sapiens); test: Inhibition of HDAC6 in human HCT116 cells assessed as increase in acetylated tubulin levels at 0.3 to 30 uM after 24 hrs by Western blot analysis; format: cell-based
[17] = target: T1, Protein deacetylase HDAC6 (Homo sapiens); test: Inhibition of HDAC6 in human A549 cells assessed as increase in acetylated tubulin levels at 0.03 to 3 uM after 24 hrs by Western blot analysis; format: cell-based
[18] = target: T1, Protein deacetylase HDAC6 (Homo sapiens); test: Inhibition of HDAC6 in human HCT116 cells assessed as increase in acetylated tubulin levels at 0.03 to 3 uM after 24 hrs by Western blot analysis; format: cell-based

| SMILES | IC50 [1] | IC50 [3] | IC50 [4] | IC50 [5] | IC50 [7] | further results |
| --- | --- | --- | --- | --- | --- | --- |
| CCc1c2c(nc3ccc(OC(=O)N4CCN(C(=O)CCCCCCCCC(=O)NO)CC4)cc13)-c1cc3c(c(=O)n1C2)COC(=O)[C@]3(O)CC | – | – | 25400 nM | 30100 nM | 7020 nM | – |
| CCc1c2c(nc3ccc(OC(=O)N4CCN(C(=O)CCCCCCCCCCC(=O)NO)CC4)cc13)-c1cc3c(c(=O)n1C2)COC(=O)[C@]3(O)CC | – | – | 27300 nM | 11000 nM | 3570 nM | – |
| CCc1c2c(nc3ccc(OC(=O)N4CCN(C(=O)CCCCCCCC(=O)NO)CC4)cc13)-c1cc3c(c(=O)n1C2)COC(=O)[C@]3(O)CC | – | – | 18800 nM | 19700 nM | 9040 nM | – |
| CCc1c2c(nc3ccc(OC(=O)N4CCN(C(=O)CCCCCCC(=O)NO)CC4)cc13)-c1cc3c(c(=O)n1C2)COC(=O)[C@]3(O)CC | 7230 nM | 6240 nM | 9320 nM | 5570 nM | 12200 nM | Stability [12]: Stable; Stability [13]: Unstable; Stability [8]: Stable; inhibition [15]: Active; Stability [14]: Stable; inhibition [16]: Active |
| CCc1c2c(nc3ccc(OC(=O)N4CCC(N5CCCCC5)CC4)cc13)-c1cc3c(c(=O)n1C2)COC(=O)[C@]3(O)CC [IRINOTECAN] | 1880 nM | 1630 nM | – | – | – | – |
| CCc1c2c(nc3ccc(OC(=O)N4CCN(C(=O)CCCCCC(=O)NO)CC4)cc13)-c1cc3c(c(=O)n1C2)COC(=O)[C@]3(O)CC | – | – | 12000 nM | 13600 nM | – | – |
| CCc1c2c(nc3ccc(OC(=O)N4CCN(C(=O)CCCCCCCCCC(=O)NO)CC4)cc13)-c1cc3c(c(=O)n1C2)COC(=O)[C@]3(O)CC | 6730 nM | 3220 nM | 24600 nM | 17400 nM | 4700 nM | inhibition [17]: Active; inhibition [18]: Active |

Further lines, with some results ahead:

| IC50 [1] | IC50 [3] | IC50 [4] | IC50 [5] | IC50 [7] | SMILES | further results |
| --- | --- | --- | --- | --- | --- | --- |
| 245 nM | 46.2 nM | 100 nM | 110 nM | 220 nM | CCc1c2c(nc3ccc(O)cc13)-c1cc3c(c(=O)n1C2)COC(=O)[C@@]3(CC)OC(=O)CCCCCC(=O)NO | inhibition [2]: inactive; inhibition [6]: inactive |
| – | – | 5330 nM | 6180 nM | 610 nM | CCc1c2c(nc3ccc(O)cc13)-c1cc3c(c(=O)n1C2)COC(=O)[C@@]3(CC)OC(=O)CCCCCCCCCC(=O)NO | – |
| 138 nM | 30.5 nM | 1600 nM | 1960 nM | 860 nM | CCc1c2c(nc3ccc(O)cc13)-c1cc3c(c(=O)n1C2)COC(=O)[C@@]3(CC)OC(=O)CNC(=O)CCCCCCC(=O)NO | inhibition [2]: inactive; Stability [8]: Unstable; half-life at 50 µM [9]: 1 h; half-life at 50 µM [10]: 6 h; half-life at 50 µM [11]: 5 h; inhibition [6]: inactive |
| 612 nM | 88 nM | 100 nM | 90 nM | 250 nM | CCc1c2c(nc3ccc(O)cc13)-c1cc3c(c(=O)n1C2)COC(=O)[C@@]3(CC)OC(=O)CCCCCCC(=O)NO | Stability [12]: Stable; Stability [13]: Unstable; inhibition [2]: inactive; Stability [8]: Stable; Stability [14]: Stable; inhibition [6]: inactive |
| 129 nM | 29 nM | 37200 nM | 27100 nM | 6940 nM | CCc1c2c(nc3ccc(O)cc13)-c1cc3c(c(=O)n1C2)COC(=O)[C@@]3(CC)OC(=O)CCCCCCC(=O)O | inhibition [2]: Active; inhibition [6]: Active |
| 1.62 to 7.33 nM | 0.78 nM | – | – | – | CCc1c2c(nc3ccc(O)cc13)-c1cc3c(c(=O)n1C2)COC(=O)[C@]3(O)CC [7-ETHYL-10-HYDROXYCAMPTOTHECIN] | – |
| – | – | 780 nM | 710 nM | 320 nM | CCc1c2c(nc3ccc(O)cc13)-c1cc3c(c(=O)n1C2)COC(=O)[C@@]3(CC)OC(=O)CCCCCCCCC(=O)NO | – |
| 111 nM | 23.2 nM | 34900 nM | 27700 nM | 8660 nM | CCc1c2c(nc3ccc(O)cc13)-c1cc3c(c(=O)n1C2)COC(=O)[C@@]3(CC)OC(=O)CNC(=O)CCCCCCC(=O)O | inhibition [2]: Active; inhibition [6]: Active |
| – | – | 990 nM | 970 nM | 210 nM | CCc1c2c(nc3ccc(O)cc13)-c1cc3c(c(=O)n1C2)COC(=O)[C@@]3(CC)OC(=O)CCCCCCCC(=O)NO | – |
| – | – | 11800 nM | 12600 nM | 1070 nM | CCc1c2c(nc3ccc(O)cc13)-c1cc3c(c(=O)n1C2)COC(=O)[C@@]3(CC)OC(=O)CCCCCCCCCCC(=O)NO | – |
